In the NIST ThermoML archive (doi:10.1016/j.fluid.2009.08.011):
Numbers after ± are expanded uncertainties.

Assay: cn = amount concentration of the nth substance listed, in mol/dm3
Details: 101 kPa, Liquid, Alternating current cell with electrodes

## CCCCn1cc[n+](C)c1.[Br-] [1-butyl-3-methylimidazolium bromide] + O
298.15 K, c1 = 0.0004937
  molar conductivity: 0.0131 ± 0.0013 S·m2/mol
298.15 K, c1 = 0.0008655
  molar conductivity: 0.0131 ± 0.0013 S·m2/mol
298.15 K, c1 = 0.001621
  molar conductivity: 0.013 ± 0.0013 S·m2/mol
298.15 K, c1 = 0.002706
  molar conductivity: 0.0129 ± 0.0013 S·m2/mol
298.15 K, c1 = 0.003761
  molar conductivity: 0.0128 ± 0.0013 S·m2/mol
298.15 K, c1 = 0.005815
  molar conductivity: 0.0126 ± 0.0013 S·m2/mol
298.15 K, c1 = 0.008089
  molar conductivity: 0.0125 ± 0.0013 S·m2/mol
298.15 K, c1 = 0.01047
  molar conductivity: 0.0123 ± 0.0012 S·m2/mol
298.15 K, c1 = 0.01259
  molar conductivity: 0.0122 ± 0.0012 S·m2/mol
308.15 K, c1 = 0.0004882
  molar conductivity: 0.0137 ± 0.0014 S·m2/mol
308.15 K, c1 = 0.00104
  molar conductivity: 0.0135 ± 0.0014 S·m2/mol
308.15 K, c1 = 0.001567
  molar conductivity: 0.0135 ± 0.0013 S·m2/mol
308.15 K, c1 = 0.001953
  molar conductivity: 0.0134 ± 0.0013 S·m2/mol
308.15 K, c1 = 0.002955
  molar conductivity: 0.0132 ± 0.0013 S·m2/mol
308.15 K, c1 = 0.00388
  molar conductivity: 0.0131 ± 0.0013 S·m2/mol
308.15 K, c1 = 0.004882
  molar conductivity: 0.0129 ± 0.0013 S·m2/mol
308.15 K, c1 = 0.006552
  molar conductivity: 0.0128 ± 0.0013 S·m2/mol
308.15 K, c1 = 0.008273
  molar conductivity: 0.0127 ± 0.0013 S·m2/mol
308.15 K, c1 = 0.009904
  molar conductivity: 0.0125 ± 0.0013 S·m2/mol
308.15 K, c1 = 0.01206
  molar conductivity: 0.0124 ± 0.0012 S·m2/mol
318.15 K, c1 = 0.000457
  molar conductivity: 0.015 ± 0.0015 S·m2/mol
318.15 K, c1 = 0.001096
  molar conductivity: 0.0148 ± 0.0015 S·m2/mol
318.15 K, c1 = 0.001486
  molar conductivity: 0.0147 ± 0.0015 S·m2/mol
318.15 K, c1 = 0.002393
  molar conductivity: 0.0143 ± 0.0014 S·m2/mol
318.15 K, c1 = 0.003324
  molar conductivity: 0.014 ± 0.0014 S·m2/mol
318.15 K, c1 = 0.004652
  molar conductivity: 0.0138 ± 0.0014 S·m2/mol
318.15 K, c1 = 0.006235
  molar conductivity: 0.0134 ± 0.0013 S·m2/mol
318.15 K, c1 = 0.008073
  molar conductivity: 0.0131 ± 0.0013 S·m2/mol
318.15 K, c1 = 0.009991
  molar conductivity: 0.0129 ± 0.0013 S·m2/mol
318.15 K, c1 = 0.012
  molar conductivity: 0.0126 ± 0.0013 S·m2/mol
318.15 K, c1 = 0.0138
  molar conductivity: 0.0124 ± 0.0012 S·m2/mol
328.15 K, c1 = 0.00043
  molar conductivity: 0.0158 ± 0.0016 S·m2/mol
328.15 K, c1 = 0.000847
  molar conductivity: 0.0157 ± 0.0016 S·m2/mol
328.15 K, c1 = 0.001805
  molar conductivity: 0.0154 ± 0.0015 S·m2/mol
328.15 K, c1 = 0.002719
  molar conductivity: 0.0152 ± 0.0015 S·m2/mol
328.15 K, c1 = 0.003628
  molar conductivity: 0.015 ± 0.0015 S·m2/mol
328.15 K, c1 = 0.005125
  molar conductivity: 0.0147 ± 0.0015 S·m2/mol
328.15 K, c1 = 0.006801
  molar conductivity: 0.0144 ± 0.0014 S·m2/mol
328.15 K, c1 = 0.008998
  molar conductivity: 0.014 ± 0.0014 S·m2/mol
328.15 K, c1 = 0.01111
  molar conductivity: 0.0136 ± 0.0014 S·m2/mol
328.15 K, c1 = 0.01358
  molar conductivity: 0.0132 ± 0.0013 S·m2/mol

## CCCCn1cc[n+](C)c1.[Cl-] [1-butyl-3-methylimidazolium chloride] + O
298.15 K, c1 = 0.0004271
  molar conductivity: 0.0109 ± 0.0011 S·m2/mol
298.15 K, c1 = 0.0009378
  molar conductivity: 0.0108 ± 0.0011 S·m2/mol
298.15 K, c1 = 0.001755
  molar conductivity: 0.0107 ± 0.0011 S·m2/mol
298.15 K, c1 = 0.002553
  molar conductivity: 0.0106 ± 0.0011 S·m2/mol
298.15 K, c1 = 0.002999
  molar conductivity: 0.0106 ± 0.0011 S·m2/mol
298.15 K, c1 = 0.003835
  molar conductivity: 0.0105 ± 0.0011 S·m2/mol
298.15 K, c1 = 0.004438
  molar conductivity: 0.0104 ± 0.001 S·m2/mol
298.15 K, c1 = 0.004986
  molar conductivity: 0.0104 ± 0.001 S·m2/mol
298.15 K, c1 = 0.005608
  molar conductivity: 0.0103 ± 0.001 S·m2/mol
298.15 K, c1 = 0.006388
  molar conductivity: 0.0103 ± 0.001 S·m2/mol
298.15 K, c1 = 0.007112
  molar conductivity: 0.0102 ± 0.001 S·m2/mol
298.15 K, c1 = 0.008217
  molar conductivity: 0.0101 ± 0.001 S·m2/mol
298.15 K, c1 = 0.008932
  molar conductivity: 0.0101 ± 0.001 S·m2/mol
298.15 K, c1 = 0.009777
  molar conductivity: 0.00999 ± 0.001 S·m2/mol
298.15 K, c1 = 0.01041
  molar conductivity: 0.00996 ± 0.001 S·m2/mol
298.15 K, c1 = 0.01119
  molar conductivity: 0.00983 ± 0.00098 S·m2/mol
298.15 K, c1 = 0.01216
  molar conductivity: 0.00978 ± 0.00098 S·m2/mol
298.15 K, c1 = 0.01304
  molar conductivity: 0.00968 ± 0.00097 S·m2/mol
298.15 K, c1 = 0.01389
  molar conductivity: 0.00962 ± 0.00096 S·m2/mol
308.15 K, c1 = 0.0006735
  molar conductivity: 0.0111 ± 0.0011 S·m2/mol
308.15 K, c1 = 0.001508
  molar conductivity: 0.011 ± 0.0011 S·m2/mol
308.15 K, c1 = 0.002241
  molar conductivity: 0.011 ± 0.0011 S·m2/mol
308.15 K, c1 = 0.002432
  molar conductivity: 0.0109 ± 0.0011 S·m2/mol
308.15 K, c1 = 0.003588
  molar conductivity: 0.0108 ± 0.0011 S·m2/mol
308.15 K, c1 = 0.004875
  molar conductivity: 0.0106 ± 0.0011 S·m2/mol
308.15 K, c1 = 0.006007
  molar conductivity: 0.0104 ± 0.001 S·m2/mol
308.15 K, c1 = 0.008219
  molar conductivity: 0.0103 ± 0.001 S·m2/mol
308.15 K, c1 = 0.01013
  molar conductivity: 0.0103 ± 0.001 S·m2/mol
308.15 K, c1 = 0.01259
  molar conductivity: 0.0102 ± 0.001 S·m2/mol
308.15 K, c1 = 0.01457
  molar conductivity: 0.0101 ± 0.001 S·m2/mol
308.15 K, c1 = 0.01708
  molar conductivity: 0.01 ± 0.001 S·m2/mol
308.15 K, c1 = 0.01958
  molar conductivity: 0.01 ± 0.001 S·m2/mol
308.15 K, c1 = 0.02199
  molar conductivity: 0.00998 ± 0.001 S·m2/mol
318.15 K, c1 = 0.000681
  molar conductivity: 0.0119 ± 0.0012 S·m2/mol
318.15 K, c1 = 0.001635
  molar conductivity: 0.0117 ± 0.0012 S·m2/mol
318.15 K, c1 = 0.002388
  molar conductivity: 0.0113 ± 0.0011 S·m2/mol
318.15 K, c1 = 0.003429
  molar conductivity: 0.0111 ± 0.0011 S·m2/mol
318.15 K, c1 = 0.004391
  molar conductivity: 0.0109 ± 0.0011 S·m2/mol
318.15 K, c1 = 0.006618
  molar conductivity: 0.0107 ± 0.0011 S·m2/mol
318.15 K, c1 = 0.008725
  molar conductivity: 0.0105 ± 0.001 S·m2/mol
318.15 K, c1 = 0.01078
  molar conductivity: 0.0103 ± 0.001 S·m2/mol
318.15 K, c1 = 0.01367
  molar conductivity: 0.0101 ± 0.001 S·m2/mol
318.15 K, c1 = 0.01671
  molar conductivity: 0.00997 ± 0.001 S·m2/mol
318.15 K, c1 = 0.02016
  molar conductivity: 0.00981 ± 0.00098 S·m2/mol
318.15 K, c1 = 0.02295
  molar conductivity: 0.0097 ± 0.00097 S·m2/mol
318.15 K, c1 = 0.02493
  molar conductivity: 0.00962 ± 0.00096 S·m2/mol
328.15 K, c1 = 0.0006908
  molar conductivity: 0.0125 ± 0.0012 S·m2/mol
328.15 K, c1 = 0.0007995
  molar conductivity: 0.0124 ± 0.0012 S·m2/mol
328.15 K, c1 = 0.001327
  molar conductivity: 0.0123 ± 0.0012 S·m2/mol
328.15 K, c1 = 0.002041
  molar conductivity: 0.0121 ± 0.0012 S·m2/mol
328.15 K, c1 = 0.002693
  molar conductivity: 0.012 ± 0.0012 S·m2/mol
328.15 K, c1 = 0.004479
  molar conductivity: 0.0115 ± 0.0011 S·m2/mol
328.15 K, c1 = 0.006054
  molar conductivity: 0.0113 ± 0.0011 S·m2/mol
328.15 K, c1 = 0.007413
  molar conductivity: 0.0111 ± 0.0011 S·m2/mol
328.15 K, c1 = 0.008786
  molar conductivity: 0.0109 ± 0.0011 S·m2/mol
328.15 K, c1 = 0.01028
  molar conductivity: 0.0108 ± 0.0011 S·m2/mol
328.15 K, c1 = 0.01229
  molar conductivity: 0.0106 ± 0.0011 S·m2/mol
328.15 K, c1 = 0.01504
  molar conductivity: 0.0104 ± 0.001 S·m2/mol
328.15 K, c1 = 0.01749
  molar conductivity: 0.0102 ± 0.001 S·m2/mol
